In ChEMBL document CHEMBL1909046, “DrugMatrix in vitro pharmacology data”:
*1 amine or outer side, *2 acyl side, *3 side chain or, on linkers, in order; H or OH if unused. Where a SMILES comes first, the peptide text is derived from it. Bridges are numbered along the chain shown (N, C = ends). Roman numbers before positions name the chains, in order. [ ]: non-standard residue; d: D form. Actinocin(1to9) = Cc1c2oc3c(C)ccc(C(=O)[*:2])c3nc-2c(C(=O)[*:1])c(N)c1=O; NMeV = CN[C@H](C(=O)O)C(C)C; Sar = CNCC(=O)O

Columns and labels:
[1] = DRUGMATRIX: Leukotriene, BLT (LTB4) radioligand binding (ligand: [3H]LTB4); type: cell membranes, Membrane; conditions: u-937; Not Active = under 50% inhibition at 10 µM
Cytochrome P450 2C9 = Cytochrome P450 2C9 (Homo sapiens, UniProt P11712); conditions: bti-tn-5b1-4; note: in other assays of this panel Not Active means under 50% inhibition at 10 µM
Chain of Cytochrome P450 2C9 (P11712 whole entry): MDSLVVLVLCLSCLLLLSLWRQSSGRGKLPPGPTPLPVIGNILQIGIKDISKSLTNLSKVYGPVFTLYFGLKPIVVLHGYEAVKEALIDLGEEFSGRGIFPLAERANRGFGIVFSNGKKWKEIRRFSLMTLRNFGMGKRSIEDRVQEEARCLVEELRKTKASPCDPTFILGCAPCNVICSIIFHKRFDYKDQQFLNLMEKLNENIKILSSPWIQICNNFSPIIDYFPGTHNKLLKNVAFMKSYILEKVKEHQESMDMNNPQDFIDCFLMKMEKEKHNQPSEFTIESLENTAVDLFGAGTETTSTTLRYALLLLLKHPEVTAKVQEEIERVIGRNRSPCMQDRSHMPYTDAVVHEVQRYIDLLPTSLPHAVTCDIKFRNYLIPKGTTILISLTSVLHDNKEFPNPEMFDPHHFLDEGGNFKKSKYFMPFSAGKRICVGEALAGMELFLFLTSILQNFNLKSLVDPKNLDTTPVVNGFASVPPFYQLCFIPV

Glucocorticoid receptor = molecular target: T1, Glucocorticoid receptor (Homo sapiens, UniProt P04150); conditions: hela s3; note: in other assays of this panel Not Active means under 50% inhibition at 10 µM
T1 sequence (P04150 whole entry): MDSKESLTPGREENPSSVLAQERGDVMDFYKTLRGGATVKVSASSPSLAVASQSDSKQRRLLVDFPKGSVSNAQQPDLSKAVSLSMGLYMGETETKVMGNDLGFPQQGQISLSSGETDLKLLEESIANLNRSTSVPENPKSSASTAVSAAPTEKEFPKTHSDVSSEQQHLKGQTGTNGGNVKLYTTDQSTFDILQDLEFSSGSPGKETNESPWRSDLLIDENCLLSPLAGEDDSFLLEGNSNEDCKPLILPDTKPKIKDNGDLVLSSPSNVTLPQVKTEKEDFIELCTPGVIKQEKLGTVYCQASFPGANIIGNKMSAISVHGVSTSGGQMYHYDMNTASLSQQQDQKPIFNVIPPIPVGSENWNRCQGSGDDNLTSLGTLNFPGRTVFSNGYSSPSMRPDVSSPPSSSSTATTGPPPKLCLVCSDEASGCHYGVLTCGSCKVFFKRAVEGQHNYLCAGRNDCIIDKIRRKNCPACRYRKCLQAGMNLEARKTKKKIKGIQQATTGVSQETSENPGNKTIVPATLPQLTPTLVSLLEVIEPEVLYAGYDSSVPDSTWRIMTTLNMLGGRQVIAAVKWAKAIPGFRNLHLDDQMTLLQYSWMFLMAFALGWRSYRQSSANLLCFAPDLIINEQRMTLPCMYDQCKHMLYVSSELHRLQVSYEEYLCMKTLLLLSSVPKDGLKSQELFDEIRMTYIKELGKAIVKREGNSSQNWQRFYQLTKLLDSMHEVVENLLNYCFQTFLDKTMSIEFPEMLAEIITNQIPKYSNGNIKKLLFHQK

[2] = molecular target: Tyrosine-protein kinase Lck (Homo sapiens, UniProt P06239); assay: DRUGMATRIX: Protein Tyrosine Kinase, LCK enzyme inhibition (substrate: Poly(Glu:Tyr)); type: cell-based, Insect cells; conditions: insect cells; Not Active = under 50% inhibition at 10 µM
Chain of Tyrosine-protein kinase Lck (P06239 whole entry): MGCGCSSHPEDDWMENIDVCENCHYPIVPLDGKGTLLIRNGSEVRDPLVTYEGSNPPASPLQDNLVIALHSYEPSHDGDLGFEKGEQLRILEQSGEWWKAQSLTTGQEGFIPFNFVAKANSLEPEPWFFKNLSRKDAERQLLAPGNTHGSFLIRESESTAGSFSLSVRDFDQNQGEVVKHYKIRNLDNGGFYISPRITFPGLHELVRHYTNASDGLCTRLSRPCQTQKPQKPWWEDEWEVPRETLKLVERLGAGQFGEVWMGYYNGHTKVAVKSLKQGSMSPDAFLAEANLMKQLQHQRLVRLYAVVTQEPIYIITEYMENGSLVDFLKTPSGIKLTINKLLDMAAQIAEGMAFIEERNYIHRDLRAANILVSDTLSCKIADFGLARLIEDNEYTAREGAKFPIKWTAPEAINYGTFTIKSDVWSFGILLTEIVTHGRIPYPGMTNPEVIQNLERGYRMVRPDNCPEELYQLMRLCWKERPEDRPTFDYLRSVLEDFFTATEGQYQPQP

[3] = molecular target: Aldo-keto reductase family 1 member B1 (Rattus norvegicus, UniProt P07943); assay: biochemical; type: tissue-based, Lens of camera-type eye;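 note: inhibition of aldose reductase enzyme activity, measured with DL-glyceraldehyde as the substrate; in other assays of this panel Not Active means under 50% inhibition at 10 µM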
[4] = molecular target: T2, 3-hydroxy-3-methylglutaryl-coenzyme A reductase (Homo sapiens, UniProt P04035); design: species or system Escherichia coli;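 note: enzyme inhibition assay of HMG-CoA reductase using radiolabeled [14C]HMG-CoA as substrate; in other assays of this panel Not Active means under 50% inhibition at 10 µM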
T2 sequence (P04035 whole entry): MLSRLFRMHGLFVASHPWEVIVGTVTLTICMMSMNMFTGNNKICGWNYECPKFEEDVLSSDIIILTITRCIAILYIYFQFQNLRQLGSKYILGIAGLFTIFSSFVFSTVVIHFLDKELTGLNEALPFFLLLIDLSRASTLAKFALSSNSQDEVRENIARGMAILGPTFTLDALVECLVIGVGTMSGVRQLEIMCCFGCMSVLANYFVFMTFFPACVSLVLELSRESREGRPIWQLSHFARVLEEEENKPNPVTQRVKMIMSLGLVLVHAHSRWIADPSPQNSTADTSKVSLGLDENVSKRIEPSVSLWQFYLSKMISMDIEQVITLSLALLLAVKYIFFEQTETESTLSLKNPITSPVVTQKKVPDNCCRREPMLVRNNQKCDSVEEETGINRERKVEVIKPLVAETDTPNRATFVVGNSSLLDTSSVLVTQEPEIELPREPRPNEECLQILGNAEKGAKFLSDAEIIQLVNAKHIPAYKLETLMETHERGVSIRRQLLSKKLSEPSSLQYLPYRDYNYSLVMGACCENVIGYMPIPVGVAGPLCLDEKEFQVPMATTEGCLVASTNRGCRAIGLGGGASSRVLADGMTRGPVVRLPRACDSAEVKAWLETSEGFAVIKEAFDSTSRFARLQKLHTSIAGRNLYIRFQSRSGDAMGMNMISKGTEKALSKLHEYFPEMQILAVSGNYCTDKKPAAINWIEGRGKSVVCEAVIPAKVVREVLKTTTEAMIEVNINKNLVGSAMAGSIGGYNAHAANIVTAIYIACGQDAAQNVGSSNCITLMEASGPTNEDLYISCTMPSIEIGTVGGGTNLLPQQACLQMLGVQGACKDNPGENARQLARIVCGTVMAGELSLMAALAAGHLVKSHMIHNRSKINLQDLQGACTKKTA

Cytochrome P450 2E1 = Cytochrome P450 2E1 (Homo sapiens, UniProt P05181); conditions: bti-tn-5b1-4; note: in other assays of this panel Not Active means under 50% inhibition at 10 µM
Chain of Cytochrome P450 2E1 (P05181 whole entry): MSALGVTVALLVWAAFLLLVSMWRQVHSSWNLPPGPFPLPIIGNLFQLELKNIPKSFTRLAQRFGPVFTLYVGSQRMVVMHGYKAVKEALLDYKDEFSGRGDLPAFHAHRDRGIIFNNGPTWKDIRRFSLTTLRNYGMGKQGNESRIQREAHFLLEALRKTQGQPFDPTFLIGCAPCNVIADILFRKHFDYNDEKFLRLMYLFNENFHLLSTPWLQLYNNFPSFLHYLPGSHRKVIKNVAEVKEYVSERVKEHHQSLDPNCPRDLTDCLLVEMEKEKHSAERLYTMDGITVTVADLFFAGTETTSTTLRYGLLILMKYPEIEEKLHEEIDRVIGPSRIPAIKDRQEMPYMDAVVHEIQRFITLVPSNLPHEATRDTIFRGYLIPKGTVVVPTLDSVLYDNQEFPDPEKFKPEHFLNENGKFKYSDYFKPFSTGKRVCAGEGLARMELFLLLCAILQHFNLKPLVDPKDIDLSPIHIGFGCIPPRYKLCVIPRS

CC(NC(C)(C)C)C(=O)c1cccc(Cl)c1 (stereo unspecified) [BUPROPION]
Not Active: IC50 [1] | Ki [1] | IC50 (Cytochrome P450 2C9) | Ki (Cytochrome P450 2C9) | IC50 (Glucocorticoid receptor) | IC50 [2] | IC50 [3] | IC50 [4] | IC50 (Cytochrome P450 2E1) | Ki (Cytochrome P450 2E1)

C[C@H]1O[C@@H](O[C@H]2[C@@H](O)C[C@H](O[C@H]3[C@@H](O)C[C@H](O[C@H]4CC[C@@]5(C)[C@H](CC[C@@H]6[C@@H]5C[C@@H](O)[C@]5(C)[C@@H](C7=CC(=O)OC7)CC[C@]65O)C4)O[C@@H]3C)O[C@@H]2C)C[C@H](O)[C@@H]1O [DIGOXIN]
Not Active: IC50 [1] | Ki [1] | IC50 (Cytochrome P450 2C9) | Ki (Cytochrome P450 2C9) | IC50 (Glucocorticoid receptor) | IC50 [2] | IC50 [3] | IC50 [4] | IC50 (Cytochrome P450 2E1) | Ki (Cytochrome P450 2E1)

Cc1c2oc3c(C)ccc(C(=O)N[C@@H]4C(=O)N[C@H](C(C)C)C(=O)N5CCC[C@H]5C(=O)N(C)CC(=O)N(C)[C@@H](C(C)C)C(=O)O[C@@H]4C)c3nc-2c(C(=O)N[C@@H]2C(=O)N[C@H](C(C)C)C(=O)N3CCC[C@H]3C(=O)N(C)CC(=O)N(C)[C@@H](C(C)C)C(=O)O[C@@H]2C)c(N)c1=O [DACTINOMYCIN] (I: T[dV]P[Sar][NMeV] / II: T[dV]P[Sar][NMeV]; ester I:1-I:C, II:1-II:C; linker I:N-II:N via Actinocin(1to9))
Not Active: IC50 [1] | Ki [1] | IC50 (Cytochrome P450 2C9) | Ki (Cytochrome P450 2C9) | IC50 (Glucocorticoid receptor) | IC50 [2] | IC50 [3] | IC50 [4] | IC50 (Cytochrome P450 2E1) | Ki (Cytochrome P450 2E1)

Cc1onc(-c2ccccc2Cl)c1C(=O)N[C@@H]1C(=O)N2[C@@H]1SC(C)(C)[C@@H]2C(=O)O [CLOXACILLIN]
Not Active: IC50 [1] | Ki [1] | IC50 (Glucocorticoid receptor) | IC50 [2] | IC50 [3] | IC50 [4] | IC50 (Cytochrome P450 2E1) | Ki (Cytochrome P450 2E1)

CN(C)c1nc(N(C)C)nc(N(C)C)n1 [ALTRETAMINE]
Not Active: IC50 [1] | Ki [1] | IC50 (Glucocorticoid receptor) | IC50 [2] | IC50 [3] | IC50 [4]

N=C(N)NCCN1CCCCCCC1 [GUANETHIDINE]
Not Active: IC50 [1] | Ki [1] | IC50 (Glucocorticoid receptor) | IC50 [2] | IC50 [3] | IC50 [4]

CN(C)CCCN1c2ccccc2Sc2ccc(Cl)cc21 [CHLORPROMAZINE]
Not Active: IC50 [1] | Ki [1] | IC50 (Glucocorticoid receptor) | IC50 [2] | IC50 [3] | IC50 [4] | IC50 (Cytochrome P450 2E1) | Ki (Cytochrome P450 2E1)

CC(C)[C@@]1(NC(=O)[C@@H]2C[C@@H]3c4cccc5[nH]cc(c45)C[C@H]3N(C)C2)O[C@@]2(O)[C@@H]3CCCN3C(=O)[C@H](Cc3ccccc3)N2C1=O.CS(=O)(=O)O [DIHYDROERGOCRISTINE MESYLATE]
Not Active: IC50 [1] | Ki [1] | IC50 (Glucocorticoid receptor) | IC50 [2] | IC50 [3] | IC50 [4] | IC50 (Cytochrome P450 2E1) | Ki (Cytochrome P450 2E1)

Nc1c(Br)cc(Br)cc1CN[C@H]1CC[C@H](O)CC1 [AMBROXOL]
Not Active: IC50 [1] | Ki [1] | IC50 (Glucocorticoid receptor) | IC50 [2] | IC50 [3] | IC50 [4]

CC1(C)S[C@@H]2[C@H](NC(=O)Cc3ccccc3)C(=O)N2[C@H]1C(=O)O [PENICILLIN G]
Not Active: IC50 [1] | Ki [1] | IC50 (Glucocorticoid receptor) | IC50 [2] | IC50 [3] | IC50 [4]

CC(C)(Oc1ccc(Cl)cc1)C(=O)O [CLOFIBRIC ACID]
Not Active: IC50 [1] | Ki [1] | IC50 (Glucocorticoid receptor) | IC50 [2] | IC50 [3] | IC50 [4] | IC50 (Cytochrome P450 2E1) | Ki (Cytochrome P450 2E1)
